Here are results for 16 compounds from US11046697B2, “Compounds and compositions useful for treating disorders related to NTRK” (BLUEPRINT MEDICINES CORPORATION, priority 2015, dated 2021).

pIC50: −log10 of the molar value. A value given as a limit tells only on which side of the number the result lay.

T1 sequence (P04629 440-796 limits assumed): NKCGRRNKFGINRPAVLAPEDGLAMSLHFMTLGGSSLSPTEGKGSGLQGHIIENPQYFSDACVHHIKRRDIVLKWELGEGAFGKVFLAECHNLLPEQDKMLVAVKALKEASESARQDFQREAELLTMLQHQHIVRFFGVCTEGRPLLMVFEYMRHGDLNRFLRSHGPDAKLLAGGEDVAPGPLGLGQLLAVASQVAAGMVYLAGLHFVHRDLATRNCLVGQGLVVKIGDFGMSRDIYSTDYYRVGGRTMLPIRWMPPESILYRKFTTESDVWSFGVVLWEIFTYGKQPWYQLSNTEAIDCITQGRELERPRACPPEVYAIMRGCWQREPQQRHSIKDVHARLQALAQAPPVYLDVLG

For one test, the system named is KM12 wild type colon carcinoma cell line harboring the TPM3-NTRK1 fusion protein. The test is described as follows: NTRK wild type cellular assay (CellTiter-Glo growth inhibition). Format: cell-based. The following applies: 72 hr, CellTiter-Glo; read-out: KM12 (WT) IC50. In outline:
(§1)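 KM12 (TPM3-NTRK1 fusion) or KM12 Cliff (G595R) cells at 1000 cells/well in 10% FBS media were dosed with compounds at varying concentrations in duplicate after overnight plating.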
Background: In ATP-based viability assays light output follows the ATP content of the culture.
On to `O=C(c1n[nH]c2ncnc(NC3CCOCC3O)c12)N1CC(F)CC1c1cc(F)cc(F)c1F` (stereo not drawn) [Compound 205], for which the negative-log IC50 (pIC50) (as a rule, −log10 of the IC50, conventionally taken in molar units) is over 8.00.

Turning to `O=C(c1n[nH]c2ncnc(N[C@@H]3CC[C@@H](O)[C@H]3O)c12)N1C[C@@H](F)C[C@@H]1c1cc(F)cc(F)c1F` [Compound 206], the pIC50 was over 8.00.

Consider `O=C(c1n[nH]c2ncnc(NC3CC(F)CC3O)c12)N1CC(F)CC1c1cc(F)cnc1Cl` (stereo not drawn) [Compound 207], for which the pIC50 was 7.00 to 8.00.

Turning to `CN(Cc1cc(F)ccc1C(F)(F)F)C(=O)c1n[nH]c2ncnc(NC3COCC(O)C3O)c12` (stereo not drawn) [Compound 209], the pIC50 was 7.00 to 8.00.

Turning to `N#C[C@H]1C[C@@H](O)[C@H](Nc2ncnc3[nH]nc(C(=O)N4C[C@@H](F)C[C@@H]4c4cc(F)cc(F)c4F)c23)C1` [Compound 212], the pIC50 is over 8.00.

For the compound `O=C(c1n[nH]c2ncnc(N[C@H]3[C@H](O)[C@H](O)[C@@H]4C[C@@H]43)c12)N1C[C@@H](F)C[C@@H]1c1cc(Cl)ccc1F` [Compound 215], the pIC50 is over 8.00.

In the case of `O=C(c1n[nH]c2ncnc(N[C@H]3[C@H](O)[C@H](O)[C@@H]4C[C@@H]43)c12)N1C[C@@H](F)C[C@@H]1c1cc(F)cnc1F` [Compound 216], the pIC50 is over 8.00.

For `O=C(c1n[nH]c2ncnc(NC3CCCC(O)C3O)c12)N1CC(F)CC1c1cc(F)ccc1Cl` (stereo not drawn) [Compound 217], the pIC50 is over 8.00.

For `COc1c(F)cc(F)cc1C1CC(F)CN1C(=O)c1n[nH]c2ncnc(NC3CCOCC3O)c12` (stereo not drawn) [Compound 218], the pIC50 is over 8.00.

`COc1c(F)cc(F)cc1[C@H]1C[C@H](F)CN1C(=O)c1n[nH]c2ncnc(N[C@@H]3CC[C@@H](O)[C@H]3O)c12` [Compound 219]: the pIC50 is over 8.00.

For `O=C(c1n[nH]c2ncnc(N[C@H]3[C@H](O)[C@H](O)[C@@H]4C[C@@H]43)c12)N1C[C@@H](F)C[C@@H]1c1cc(F)cc(F)c1F` [Compound 220], the pIC50 was over 8.00.

Still in this test, the particulars now being: Homo sapiens, KM12, 72 h, 72 hr, CellTiter-Glo; read-out: KM12 (WT) IC50.
On to `O=C(c1n[nH]c2ncnc(N[C@@H]3COCC[C@H]3O)c12)N1C[C@@H](F)C[C@@H]1c1cc(F)cc(F)c1F` [Compound 204], for which the pIC50 is over 8.00.

Regarding `O=C(c1n[nH]c2ncnc(NC3CC(F)CC3O)c12)N1CC(F)CC1c1cc(F)cc(F)c1F` (stereo not drawn) [Compound 208], the negative logarithm of the IC50 (pIC50) is over 8.00.

As to `N#C[C@H]1C[C@@H](O)[C@H](Nc2ncnc3[nH]nc(C(=O)N4C[C@@H](F)C[C@@H]4c4cc(F)cc(Cl)c4)c23)C1` [Compound 211], the pIC50 was over 8.00.

For the compound `O=C(c1n[nH]c2ncnc(N[C@H]3[C@H](O)[C@H](O)[C@@H]4C[C@@H]43)c12)N1C[C@@H](F)C[C@@H]1c1cc(F)ccc1Cl` [Compound 213], the pIC50 was over 8.00.

Turning to `O=C(c1n[nH]c2ncnc(N[C@H]3[C@H](O)[C@H](O)[C@@H]4C[C@@H]43)c12)N1C[C@@H](F)C[C@@H]1c1cc(F)cc(Cl)c1` [Compound 214], the negative-log IC50 (pIC50) was over 8.00.

A further test addresses T1, wild type NTRK1 enzyme (Homo sapiens, UniProt P04629).
T1 construct: purchased BPS Bioscience 40280
The test is described as follows: NTRK1 Wild Type Assay at 1 mM ATP. It counts as biochemical. The following applies: 1 mM ATP; read-out: Enz NTRK1 IC50. The protocol: NTRK1 Wild Type Assay at 1 mM ATP
The reaction was stopped by the addition of 70 μL of Stop buffer (100 mM HEPES pH 7.5, 0.015% Brij 35, 35 mM EDTA and 0.2% of Coating Reagent 3 (Caliper Lifesciences)). The plate was then read on a Caliper EZReader 2 (protocol settings: −1.7 psi, upstream voltage −500, downstream voltage −3000, post sample sip 35s).
`O=C(c1n[nH]c2ncnc(N[C@@H]3COCC[C@H]3O)c12)N1C[C@@H](F)C[C@@H]1c1cc(F)cc(F)c1F` [Compound 204]: the pIC50 was over 8.00.

Regarding `O=C(c1n[nH]c2ncnc(NC3CCOCC3O)c12)N1CC(F)CC1c1cc(F)cc(F)c1F` (stereo not drawn) [Compound 205], the negative-log IC50 (pIC50) was over 8.00.

As for `O=C(c1n[nH]c2ncnc(N[C@@H]3CC[C@@H](O)[C@H]3O)c12)N1C[C@@H](F)C[C@@H]1c1cc(F)cc(F)c1F` [Compound 206], the negative-log IC50 (pIC50) was over 8.00.

`O=C(c1n[nH]c2ncnc(NC3CC(F)CC3O)c12)N1CC(F)CC1c1cc(F)cnc1Cl` (stereo not drawn) [Compound 207]: the negative logarithm of the IC50 (pIC50) was 7.00 to 8.00.

As for `O=C(c1n[nH]c2ncnc(NC3CC(F)CC3O)c12)N1CC(F)CC1c1cc(F)cc(F)c1F` (stereo not drawn) [Compound 208], the negative logarithm of the IC50 (pIC50) is over 8.00.

For `CN(Cc1cc(F)ccc1C(F)(F)F)C(=O)c1n[nH]c2ncnc(NC3COCC(O)C3O)c12` (stereo not drawn) [Compound 209], the negative-log IC50 (pIC50) was over 8.00.

On to `N#C[C@H]1C[C@@H](O)[C@H](Nc2ncnc3[nH]nc(C(=O)N4C[C@@H](F)C[C@@H]4c4cc(F)cc(Cl)c4)c23)C1` [Compound 211], for which the negative-log IC50 (pIC50) was over 8.00.

`N#C[C@H]1C[C@@H](O)[C@H](Nc2ncnc3[nH]nc(C(=O)N4C[C@@H](F)C[C@@H]4c4cc(F)cc(F)c4F)c23)C1` [Compound 212]: the pIC50 was over 8.00.

Turning to `O=C(c1n[nH]c2ncnc(N[C@H]3[C@H](O)[C@H](O)[C@@H]4C[C@@H]43)c12)N1C[C@@H](F)C[C@@H]1c1cc(F)ccc1Cl` [Compound 213], the pIC50 is over 8.00.

Regarding `O=C(c1n[nH]c2ncnc(N[C@H]3[C@H](O)[C@H](O)[C@@H]4C[C@@H]43)c12)N1C[C@@H](F)C[C@@H]1c1cc(F)cc(Cl)c1` [Compound 214], the pIC50 was over 8.00.

Consider `O=C(c1n[nH]c2ncnc(N[C@H]3[C@H](O)[C@H](O)[C@@H]4C[C@@H]43)c12)N1C[C@@H](F)C[C@@H]1c1cc(Cl)ccc1F` [Compound 215], for which the pIC50 is over 8.00.

Regarding `O=C(c1n[nH]c2ncnc(N[C@H]3[C@H](O)[C@H](O)[C@@H]4C[C@@H]43)c12)N1C[C@@H](F)C[C@@H]1c1cc(F)cnc1F` [Compound 216], the negative logarithm of the IC50 (pIC50) was over 8.00.

As for `O=C(c1n[nH]c2ncnc(NC3CCCC(O)C3O)c12)N1CC(F)CC1c1cc(F)ccc1Cl` (stereo not drawn) [Compound 217], the negative-log IC50 (pIC50) was over 8.00.

`COc1c(F)cc(F)cc1C1CC(F)CN1C(=O)c1n[nH]c2ncnc(NC3CCOCC3O)c12` (stereo not drawn) [Compound 218]: the pIC50 was over 8.00.

For the compound `COc1c(F)cc(F)cc1[C@H]1C[C@H](F)CN1C(=O)c1n[nH]c2ncnc(N[C@@H]3CC[C@@H](O)[C@H]3O)c12` [Compound 219], the negative logarithm of the IC50 (pIC50) is over 8.00.

For `O=C(c1n[nH]c2ncnc(N[C@H]3[C@H](O)[C@H](O)[C@@H]4C[C@@H]43)c12)N1C[C@@H](F)C[C@@H]1c1cc(F)cc(F)c1F` [Compound 220], the pIC50 is over 8.00.

The next test concerns KM12 Cliff (G595R) cell line. The test is described as follows: NTRK G595R mutant cellular assay (CellTiter-Glo growth inhibition). Format: cell-based. The following applies: 72 hr, CellTiter-Glo. In outline: as §1
Turning to `O=C(c1n[nH]c2ncnc(NC3CCOCC3O)c12)N1CC(F)CC1c1cc(F)cc(F)c1F` (stereo not drawn) [Compound 205], the pIC50 is over 8.00.

The compound `O=C(c1n[nH]c2ncnc(N[C@@H]3CC[C@@H](O)[C@H]3O)c12)N1C[C@@H](F)C[C@@H]1c1cc(F)cc(F)c1F` [Compound 206] gave a negative-log IC50 (pIC50) of over 8.00.

On to `O=C(c1n[nH]c2ncnc(NC3CC(F)CC3O)c12)N1CC(F)CC1c1cc(F)cnc1Cl` (stereo not drawn) [Compound 207], for which the negative-log IC50 (pIC50) is 7.00 to 8.00.

Compound `CN(Cc1cc(F)ccc1C(F)(F)F)C(=O)c1n[nH]c2ncnc(NC3COCC(O)C3O)c12` (stereo not drawn) [Compound 209] gave a negative logarithm of the IC50 (pIC50) of 7.00 to 8.00.

As to `N#C[C@H]1C[C@@H](O)[C@H](Nc2ncnc3[nH]nc(C(=O)N4C[C@@H](F)C[C@@H]4c4cc(F)cc(F)c4F)c23)C1` [Compound 212], the negative-log IC50 (pIC50) is over 8.00.

For the compound `O=C(c1n[nH]c2ncnc(N[C@H]3[C@H](O)[C@H](O)[C@@H]4C[C@@H]43)c12)N1C[C@@H](F)C[C@@H]1c1cc(Cl)ccc1F` [Compound 215], the pIC50 was over 8.00.

Consider `O=C(c1n[nH]c2ncnc(N[C@H]3[C@H](O)[C@H](O)[C@@H]4C[C@@H]43)c12)N1C[C@@H](F)C[C@@H]1c1cc(F)cnc1F` [Compound 216], for which the pIC50 was over 8.00.

Regarding `O=C(c1n[nH]c2ncnc(NC3CCCC(O)C3O)c12)N1CC(F)CC1c1cc(F)ccc1Cl` (stereo not drawn) [Compound 217], the pIC50 is over 8.00.

As for `COc1c(F)cc(F)cc1C1CC(F)CN1C(=O)c1n[nH]c2ncnc(NC3CCOCC3O)c12` (stereo not drawn) [Compound 218], the pIC50 is over 8.00.

In turn, `COc1c(F)cc(F)cc1[C@H]1C[C@H](F)CN1C(=O)c1n[nH]c2ncnc(N[C@@H]3CC[C@@H](O)[C@H]3O)c12` [Compound 219] showed a pIC50 of over 8.00.

As to `O=C(c1n[nH]c2ncnc(N[C@H]3[C@H](O)[C@H](O)[C@@H]4C[C@@H]43)c12)N1C[C@@H](F)C[C@@H]1c1cc(F)cc(F)c1F` [Compound 220], the pIC50 is over 8.00.

The test is the same for the next values; noted with them: Homo sapiens, KM12, 72 h, 72 hr, CellTiter-Glo.
Turning to `O=C(c1n[nH]c2ncnc(N[C@@H]3COCC[C@H]3O)c12)N1C[C@@H](F)C[C@@H]1c1cc(F)cc(F)c1F` [Compound 204], the negative logarithm of the IC50 (pIC50) was over 8.00.

With `O=C(c1n[nH]c2ncnc(NC3CC(F)CC3O)c12)N1CC(F)CC1c1cc(F)cc(F)c1F` (stereo not drawn) [Compound 208], the pIC50 is over 8.00.

`N#C[C@H]1C[C@@H](O)[C@H](Nc2ncnc3[nH]nc(C(=O)N4C[C@@H](F)C[C@@H]4c4cc(F)cc(Cl)c4)c23)C1` [Compound 211]: the pIC50 was over 8.00.

Compound `O=C(c1n[nH]c2ncnc(N[C@H]3[C@H](O)[C@H](O)[C@@H]4C[C@@H]43)c12)N1C[C@@H](F)C[C@@H]1c1cc(F)ccc1Cl` [Compound 213] showed a pIC50 of over 8.00.

The compound `O=C(c1n[nH]c2ncnc(N[C@H]3[C@H](O)[C@H](O)[C@@H]4C[C@@H]43)c12)N1C[C@@H](F)C[C@@H]1c1cc(F)cc(Cl)c1` [Compound 214] showed a negative logarithm of the IC50 (pIC50) of over 8.00.
